Source: patent publication US11998610B2, “Conjugates and methods of using the same” (Flagship Pioneering Innovations V, Inc., priority 2018, dated 2024)

What was measured:
CT26.CL25 cells = experiment: Cell viability readout (CellTiter-Glo) with bacteria-free media; assay type: cell-based, mouse; details: 10 nM compound, CT26.CL25 cells, 72 h, CellTiter-Glo
Method: Example 100: Cell-Based Assay of Bacterial Enzymes with Mammalian CT26.CL25 Mouse Colorectal Carcinoma Viability Readout
Bacteria-free media was incubated with the indicated test compound. ((R)—N1-(2-(methylamino)ethyl)-2-octanamidosuccinamide, a recognition element-linker conjugate lacking a payload, was serially diluted 1:1000 in DMSO and […] in medium+10% FBS to give a final concentration of 10 nM. Compound 35, Compound 76, Compound 77, Compound 78, Compound 79, and SN-38 were serially diluted 1:1000 in DMSO and 1:1000 in medium to give a final concentration of 10 nM, and then the bacteria-free supernatants were tested for their ability to kill mammalian cells. As an additional control, the test compound will also be incubated with bacteria-free media. The above steps can also be performed in the presence of E. coli (CFT073 ATCC 700928, Nissle 1917, or BL21 (DE3)) to effect cleavage of the conjugates of the application.
On Day 1, CT26.CL25 cells (15,000 cells/well) were seeded in triplicate into a 24 well plate and incubated overnight in 100 μL of complete medium. The reactions (bacteria or media blank) was pelleted by centrifugation, and then the supernatant was passed through a 0.2 μm sterile filter to remove residual bacteria.
On Day 2, 300 μL of a 10 nM solution of each compound in media were applied to separate wells of CT26.CL25 cells as prepared on Day 1. The cells were incubated at 37° C. for 72 h. After this point, viability was assessed using a CellTiter-Glo kit.
Binning of the compounds was achieved by measuring cell growth or arrest (e.g. remaining cells are >90% viable, >80% viable, >70% viable, >60% viable, >50% viable, >40% viable, >30% viable, >20% viable, or >10% viable).

E. coli Nissle 1917 = experiment: Payload release in the presence of fecal matter, ClbP positive E. coli; assay type: cell-based; details: 10 μM compound, anaerobic, 37° C., 20 h, LCMS
Source text: (§1) This example is representative of the methods described in Example 103. Fecal samples were subjected to metagenomic whole-genome shotgun sequencing followed by querying the dataset for the presence of the clbP gene or by attempting to amplify the gene with primers specific for it by qPCR. Samples that gave a signal below the detection limit were used in subsequent steps. The fecal sample was resuspended as a 15% (w/v) slurry in Anaerobic Phosphate Buffer Saline.
(§2) Following steps 1 and 2 as detailed in Example 98, E. coli CFT073 ATCC 700928, E. coli Nissle 1917, or E. coli BL21(DE3) were grown in liquid culture.
(§3) In an anaerobic chamber, the E. coli strains were added to the fecal samples obtained in step 1 at a dilution level calculated to represent 0, 1, 10, 50, 90, 99, or 100% of all organisms present in PRAS dilution blank on a 200 μL volume. The test compound (10 μM final concentration) was added to the mixture. The test compound was also added to a bacteria-free media control under similar conditions. The plate was sealed and incubated at 37° C. for 20 h. Under similar conditions, a standard curve of both the starting material and the payload compound was made in bacteria-free media.
(§4) After 20 h, an aliquot was tested for breakdown and release of a payload by LCMS by diluting serially to a final dilution of 1:100 first with Acetonitrile (10× dilution) and then with (1:1) Mobile Phase A-0.1% Formic Acid in Water:Mobile Phase B-0.1% Formic acid in Acetonitrile (1 OX dilution), with absolute quantification compared to the external standard curve. In an ideal case, the amount of payload released in the reaction(s) with ClbP-encoding E. coli was >75% of the theoretical maximum, and none was released in the E. coli BL21(DE3) and media-alone conditions. In an acceptable case, the amount of payload released in the reaction(s) with ClbP-encoding E. coli was 25-75% of the theoretical maximum, and <25% of the theoretical maximum was released in the E. coli BL21(DE3) and media-alone conditions. In a non-preferred case, the amount of payload released in the reactions(s) with ClbP-encoding E. coli was <25% of the theoretical maximum, and >25% of the theoretical maximum was released in the E. coli BL21(DE3) and media-alone conditions.

E. coli BL21(DE3) [1] = experiment: Payload release in the presence of fecal matter, ClbP negative E. coli; assay type: cell-based; details: 10 μM compound, anaerobic, 37° C., 20 h, LCMS
Source text: as §1, §2, §3, §4

[2] = system: E. coli CFT073 ATCC 700928 and/or E. coli Nissle 1917; experiment: Cell-based assay with ClbP with LCMS, ClbP positive strain
Procedure, shortened: (§5)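 Compound (10 μM final) incubated 20 h at 37° C, aerobically, with 1:40-diluted overnight cultures of ClbP-positive E. coli or negative BL21(DE3), in duplicate, alongside uninoculated LB. Remaining parent quantified by LC-MS/MS (MRM) after acetonitrile quench, expressed as percent of media-alone.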

E. coli BL21(DE3) [3] = experiment: Cell-based assay with ClbP with LCMS, ClbP negative strain; details: 10 μM compound, 37° C., 20 h
Procedure, shortened: as §5

Q: `CCCCCCCC(=O)N[C@H](CC(N)=O)C(=O)NCCN(C)C(=O)Oc1ccc2nc3c(c(CC)c2c1)Cn1c-3cc2c(c1=O)COC(=O)[C@]2(O)CC` [Example 76, (S)-4,11-diethyl-4-hydroxy-3,14-dioxo-3,4,12,14-tetrahydro-1H-pyrano[3′,4′:6,7]indolizino[1,2-b]quinolin-9-yl (2-((R)-4-amino-2-octanamido-4-oxobutanamido)ethyl)(methyl)carbamate] was tested. Which “Bacteria-free media (Luminescence, average of three runs)” value (from here on “Bacteria-free media”) (CT26.CL25 cells) did it give?
A: 282345

Q: What about the “% payload released in ClbP positive (Nissle 1917) at 1:1 ratio of E. coli to fecal bacteria” value (E. coli Nissle 1917) of the same compound?
A: 25%

Q: What about the “% payload released in ClbP negative (BL21 DE3) at 1:1 ratio of E. coli to fecal bacteria” value (E. coli BL21(DE3) [1]) of the same compound?
A: 0%

Q: What does the source list for `CCc1c2c(nc3ccc(OC(=O)N(C)CCNC(=O)[C@@H](CC(N)=O)NC(=O)CCCc4ccccc4)cc13)-c1cc3c(c(=O)n1C2)COC(=O)[C@]3(O)CC` [Example 78, (S)-4,11-diethyl-4-hydroxy-3,14-dioxo-3,4,12,14-tetrahydro-1H-pyrano[3′,4′:6,7]indolizino[1,2-b]quinolin-9-yl (2-((R)-4-amino-4-oxo-2-(4-phenylbutanamido)butanamido)ethyl)(methyl)carbamate]?
A: Bacteria-free media (Luminescence, average of three runs) (CT26.CL25 cells): 317645; % payload released in ClbP positive (Nissle 1917) at 1:1 ratio of E. coli to fecal bacteria (E. coli Nissle 1917): 0%; % payload released in ClbP negative (BL21 DE3) at 1:1 ratio of E. coli to fecal bacteria (E. coli BL21(DE3) [1]): 0%

Q: How did the “Bacteria-free media” value (CT26.CL25 cells) turn out when `CCCCCCCC(=O)N[C@H](CC(N)=O)C(=O)NCCN(C)C(=O)O[C@]1(CC)C(=O)OCc2c1cc1n(c2=O)Cc2c-1nc1ccc(O)cc1c2CC` [Example 79, (S)-4,11-diethyl-9-hydroxy-3,14-dioxo-3,4,12,14-tetrahydro-1H-pyrano[3′,4′:6,7]indolizino[1,2-b]quinolin-4-yl (2-((R)-4-amino-2-octanamido-4-oxobutanamido)ethyl)(methyl)carbamate] was run?
A: 288245

Q: What about the “% payload released in ClbP positive (Nissle 1917) at 1:1 ratio of E. coli to fecal bacteria” value (E. coli Nissle 1917) of the same compound?
A: 0%

Q: And the “% payload released in ClbP negative (BL21 DE3) at 1:1 ratio of E. coli to fecal bacteria” value (E. coli BL21(DE3) [1])?
A: 0%

Q: Which results are given for `CCCCCCCC(=O)N[C@H](CC(N)=O)C(=O)NCCCC(=O)OCn1cc(F)c(=O)[nH]c1=O` [Example 72B, (5-fluoro-2,4-dioxo-3,4-dihydropyrimidin-1(2H)-yl)methyl (R)-4-(4-amino-2-octanamido-4-oxobutanamido)butanoate]?
A: % Remaining in ClbP Positve Relative to Media-Only ([2]; ClbP-encoding E. coli, 10 μM compound, 37° C., 20 h): ++ (<25% compound remaining in the 20 μM WT ClbP reaction relative to the control); Difference between the ClbP Positive and ClbP Negative release profiles ([2]; conclusion from Table 4): particularly favorable difference; % payload released in ClbP positive (Nissle 1917) at 1:1 ratio of E. coli to fecal bacteria (E. coli Nissle 1917): 41.1%; % payload released in ClbP negative (BL21 DE3) at 1:1 ratio of E. coli to fecal bacteria (E. coli BL21(DE3) [1]): 5.4%; % Remaining in ClbP Negative Relative to Media-Only (E. coli BL21(DE3) [3]): − (>75% compound remaining in the 20 μM WT ClbP reaction relative to the no-enzyme control)

Q: Which “Bacteria-free media” value (CT26.CL25 cells) does the source give for `CCCCCCNC(=O)N[C@H](CC(N)=O)C(=O)NCCN(C)C(=O)Oc1ccc2nc3c(c(CC)c2c1)Cn1c-3cc2c(c1=O)COC(=O)[C@]2(O)CC` [Example 77, (S)-4,11-diethyl-4-hydroxy-3,14-dioxo-3,4,12,14-tetrahydro-1H-pyrano[3′,4′:6,7]indolizino[1,2-b]quinolin-9-yl (2-((R)-4-amino-2-(3-hexylureido)-4-oxobutanamido)ethyl)(methyl)carbamate] here?
A: 345334

Q: What about the “% payload released in ClbP positive (Nissle 1917) at 1:1 ratio of E. coli to fecal bacteria” value (E. coli Nissle 1917) of the same compound?
A: 0%

Q: And the “% payload released in ClbP negative (BL21 DE3) at 1:1 ratio of E. coli to fecal bacteria” value (E. coli BL21(DE3) [1])?
A: 0%
